Data taken from publication PMC12206033, “Selective inhibition of TRPV3 channel by natural rosmarinic acid and its analogs for alleviation of skin lesions through downregulation of NF-κB pathway” (The Journal of Biological Chemistry, 2025).

Legend:
[1] = system: HEK293T cells expressing hTRPV3; assay: Hoechst 33342/propidium iodide double staining cell death assay; type: cell-based; conditions: inhibitor 20 μM added 1 h before Car 300 μM
Protocol: For cell death assay, HEK293T cells transfected with hTRPV3 were seeded in 6-well plates and randomly divided into different groups. TRPV3 and NF-κB inhibitors were added 1 h before the addition of Car. After administration of Car for 1 h, cell death was detected using Hoechst 33342/propidium iodide Double Stain Kit (Solarbio). After staining, cells were resuspended with PBS buffer. Five random view images in each group were taken under a microscope (Eclipse Ti, Nikon) and counted using ImageJ software (National Institutes of Health).

[2] = system: Car-induced ear swelling and dorsal skin inflammation in mice; assay: mouse model of ear swelling and dorsal skin inflammation induced by skin sensitizer Car (3%); type: in vivo
Excerpt: Adult C57BL/6J mice (aged 6–8 weeks, weighing 20 ± 2 g) were purchased from the Beijing Vital River Laboratory Animal Technology Co. Ltd. TRPV3-KO mice were purchased from Cyagen Biosciences Inc. All mice were housed in plastic cages with natural poplar wood bedding materials, accommodating three to five mice per cage. The housing environment was maintained at a controlled room temperature of (23 ± 2) °C and humidity of (50 ± 5) %, with 12-h light/dark cycle (lights on at 7:00 AM and off at 7:00 PM). Mice had free access to food and water. All animal test protocols were approved by the Institutional Animal Care and Use Committee of Qingdao University Health Science Center and were conducted in accordance with institutional and national guidelines for the use and care of animals in experiments. All mice were anesthetized with isoflurane (1%–1.5%) using an isoflurane gas anesthesia device and were euthanized under anesthesia.
Skin sensitizer Car was dissolved in saline solution containing 30% ethanol. The dorsal skin or ear of mice was swabbed with 3% Car for four consecutive days. To investigate the effects of ROSA, it was diluted to concentration of 0.1/1/10 mM with saline and topically applied on the ear and dorsal skin once a day for 4 days. The control group only received swabs with the solvent.

TRPV3 T665A = biological target: T1, TRPV3 T665A (Homo sapiens, UniProt Q8NET8, T665A); assay: single-channel inside-out patch recordings of TRPV3 T665A mutant; type: cell-based; conditions: ROSA 100 μM co-applied with 2-APB 50 μM; n = 4
T1 construct: expressed in transfected cells; host or cells: HEK293T
T1 sequence (Q8NET8 1-790 T665A): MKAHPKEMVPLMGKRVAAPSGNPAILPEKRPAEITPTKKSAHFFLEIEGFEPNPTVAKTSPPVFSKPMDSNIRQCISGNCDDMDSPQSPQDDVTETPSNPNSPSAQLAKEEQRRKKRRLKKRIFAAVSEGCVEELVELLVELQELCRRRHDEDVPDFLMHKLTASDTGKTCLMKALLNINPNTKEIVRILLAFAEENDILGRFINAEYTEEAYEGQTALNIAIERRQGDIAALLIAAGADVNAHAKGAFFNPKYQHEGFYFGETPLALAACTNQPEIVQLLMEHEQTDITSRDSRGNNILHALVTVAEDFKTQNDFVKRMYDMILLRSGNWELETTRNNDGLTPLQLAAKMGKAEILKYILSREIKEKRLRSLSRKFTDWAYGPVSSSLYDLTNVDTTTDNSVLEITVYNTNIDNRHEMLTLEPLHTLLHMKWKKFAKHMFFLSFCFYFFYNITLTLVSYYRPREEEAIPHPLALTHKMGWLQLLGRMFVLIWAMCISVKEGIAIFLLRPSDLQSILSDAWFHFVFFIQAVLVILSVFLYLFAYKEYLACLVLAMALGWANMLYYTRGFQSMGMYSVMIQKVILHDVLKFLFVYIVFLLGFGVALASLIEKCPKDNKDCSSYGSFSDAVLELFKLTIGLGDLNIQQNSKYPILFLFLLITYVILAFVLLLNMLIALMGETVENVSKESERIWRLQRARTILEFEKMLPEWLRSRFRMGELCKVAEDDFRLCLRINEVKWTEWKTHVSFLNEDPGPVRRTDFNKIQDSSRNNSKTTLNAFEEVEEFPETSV
Protocol: HEK293T cell line was obtained from the Cell Resource Center, Peking Union Medical College. HEK293T cells were maintained in Dulbecco’s modified Eagle’s medium (DMEM, Gibco) supplemented with 10% fetal bovine serum at 37 °C with 5% CO2. […] The next day, determine the plasmid transfection status by observing green fluorescence based on expression of enhanced GFP as an indicator. […] When conducting experiments on HEK293T cells transfected with G573S point mutant TRPV3 plasmid, we replaced culture medium with or without compounds after 4 h of transfection and then observed green fluorescence of HEK293T cell after 10 h. As for the relative fluorescence intensity, we convert the image to 8 bit grayscale using ImageJ (Https://imagej.net/software/fiji/downloads) and set an appropriate threshold value to reduce background noise and enhance the image contrast.
All patch-clamp recordings were conducted 16 to 24 h after transfection using an EPC10 amplifier powered by PatchMaster software (HEKA) (https://www.heka.com/downloads/downloads_main.html#down_patchmaster) at room temperature. […] Currents were recorded at a potential ramp from −100 mV to +100 mV for 1000 ms with 1000-ms intervals (for whole-cell recordings) or a persistent potential of −60 mV (inside-out patch recordings). […]

O=C(/C=C/c1ccc(O)c(O)c1)O[C@H](Cc1ccc(O)c(O)c1)C(=O)O [ROSA, rosmarinic acid]
cell death ratio [1]: 17%
ear thickness in Trpv3 KO mice ([2]; topical ROSA 10 mM, Trpv3 KO mice, Car): no further reduction of ear thickness
ear and dorsal skin inflammation ([2]; topical ROSA 0.1, 1.0 and 10 mM once a day for 4 days, 3% Car, compared to Car alone): significantly alleviated the ear and dorsal skin inflammation
ear swelling scores ([2]; topical ROSA 0.1, 1.0 and 10 mM, 3% Car, compared to Car alone): reduced the ear swelling scores in both dose- and time-dependent manner
ear thickness ([2]; topical ROSA, 3% Car, compared to Car alone): reduction in ear thickness was also evident, starting on the third day
dermatitis scores, dorsal skin ([2]; topical ROSA, 3% Car, fourth day): significant difference in dermatitis scores between the ROSA group and the Car group
single-channel open probability, T665A mutant (TRPV3 T665A): 0.69
